Measurements published in PubChem BioAssay (NCI).
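Growth conditions: 96-well plates. Treatment: test compound, 48 hours, 5 concentrations. Analysis: linear interpolation between bracketing concentrations; unreached endpoints set to highest concentration. TGI denotes the concentration required for complete inhibition of growth.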

Legend:
Test in all cases: NCI tumour cell line growth inhibition, 48 h
[1] = system: 786-0 renal
[2] = system: A498 renal
[3] = system: A549 NSCLC
[4] = system: ACHN renal
[5] = system: BT-549 breast
[6] = system: CAKI-1 renal
[7] = system: CCRF-CEM leukemia
[8] = system: COLO 205 colon
[9] = system: DU-145 prostate
[10] = system: EKVX NSCLC
[11] = system: HCC-2998 colon
[12] = system: HCT-116 colon
[13] = system: HCT-15 colon
[14] = system: HL-60(TB) leukemia
[15] = system: HOP-62 NSCLC
[16] = system: HOP-92 NSCLC
[17] = system: HS 578T breast
[18] = system: HT29 colon
[19] = system: IGROV1 ovarian
[20] = system: K-562 leukemia
[21] = system: KM12 colon
[22] = system: LOX IMVI melanoma
[23] = system: M14 melanoma
[24] = system: MALME-3M melanoma
[25] = system: MCF7 breast
[26] = system: MDA-MB-231 breast
[27] = system: MDA-MB-435
[28] = system: MDA-N
[29] = system: MOLT-4 leukemia
[30] = system: NCI-H226 lung
[31] = system: NCI-H23 lung
[32] = system: NCI-H460 lung
[33] = system: NCI-H522 lung
[34] = system: NCI/ADR-RES ovarian
[35] = system: OVCAR-3 ovarian
[36] = system: OVCAR-4 ovarian
[37] = system: OVCAR-5 ovarian
[38] = system: OVCAR-8 ovarian
[39] = system: PC-3 prostate
[40] = system: RPMI-8226 leukemia
[41] = system: RXF 393 renal
[42] = system: SF-268 CNS
[43] = system: SF-295 CNS
[44] = system: SF-539 CNS
[45] = system: SK-MEL-2 melanoma
[46] = system: SK-MEL-28 melanoma
[47] = system: SK-MEL-5 melanoma
[48] = system: SK-OV-3 ovarian
[49] = system: SN12C renal
[50] = system: SNB-19 CNS
[51] = system: SNB-75 CNS
[52] = system: SR leukemia
[53] = system: SW-620 colon
[54] = system: TK-10 renal
[55] = system: U251 CNS
[56] = system: UACC-257 melanoma
[57] = system: UACC-62 melanoma
[58] = system: UO-31 renal
[59] = system: T-47D breast

CCOP(=O)(OCC)/C(C#N)=C/c1cnc(C)[nH]1
TGI [1]: > 100 µM | TGI [2]: > 100 µM | TGI [3]: > 100 µM | TGI [4]: > 100 µM | TGI [5]: > 100 µM | TGI [6]: > 100 µM | TGI [7]: > 100 µM | TGI [8]: > 100 µM | TGI [9]: > 100 µM | TGI [10]: > 100 µM | TGI [11]: > 100 µM | TGI [12]: > 100 µM | TGI [13]: > 100 µM | TGI [14]: > 100 µM | TGI [15]: > 100 µM | TGI [16]: > 100 µM | TGI [17]: > 100 µM | TGI [18]: > 100 µM | TGI [19]: > 100 µM | TGI [20]: > 100 µM | TGI [21]: > 100 µM | TGI [22]: > 100 µM | TGI [23]: > 100 µM | TGI [24]: > 100 µM | TGI [25]: > 100 µM | TGI [26]: > 100 µM | TGI [27]: > 100 µM | TGI [28]: > 100 µM | TGI [29]: > 100 µM | TGI [30]: > 100 µM | TGI [31]: > 100 µM | TGI [32]: > 100 µM | TGI [33]: > 100 µM | TGI [34]: > 100 µM | TGI [35]: > 100 µM | TGI [36]: > 100 µM | TGI [37]: > 100 µM | TGI [38]: > 100 µM | TGI [39]: > 100 µM | TGI [40]: > 100 µM | TGI [41]: > 100 µM | TGI [42]: > 100 µM | TGI [43]: > 100 µM | TGI [44]: > 100 µM | TGI [45]: > 100 µM | TGI [46]: > 100 µM | TGI [47]: > 100 µM | TGI [48]: > 100 µM | TGI [49]: > 100 µM | TGI [50]: > 100 µM | TGI [51]: > 100 µM | TGI [52]: > 100 µM | TGI [53]: > 100 µM | TGI [54]: > 100 µM | TGI [55]: > 100 µM | TGI [56]: > 100 µM | TGI [57]: > 100 µM | TGI [58]: > 100 µM

Cc1nn2c(C(=O)N/N=C/c3ccccc3O)c(C)nc2s1
TGI [1]: > 100 µM | TGI [2]: > 100 µM | TGI [3]: > 100 µM | TGI [4]: > 100 µM | TGI [5]: > 100 µM | TGI [6]: > 100 µM | TGI [7]: > 100 µM | TGI [8]: > 100 µM | TGI [9]: > 100 µM | TGI [10]: > 100 µM | TGI [11]: > 100 µM | TGI [12]: > 100 µM | TGI [13]: > 100 µM | TGI [14]: > 100 µM | TGI [15]: > 100 µM | TGI [16]: > 100 µM | TGI [17]: > 100 µM | TGI [18]: > 100 µM | TGI [19]: > 100 µM | TGI [20]: > 100 µM | TGI [21]: > 100 µM | TGI [22]: > 100 µM | TGI [23]: > 100 µM | TGI [24]: > 100 µM | TGI [25]: > 100 µM | TGI [26]: > 100 µM | TGI [27]: > 100 µM | TGI [28]: > 100 µM | TGI [29]: > 100 µM | TGI [30]: > 100 µM | TGI [31]: > 100 µM | TGI [32]: > 100 µM | TGI [33]: > 100 µM | TGI [34]: > 100 µM | TGI [35]: 90.6 µM | TGI [36]: > 100 µM | TGI [37]: > 100 µM | TGI [38]: > 100 µM | TGI [41]: > 100 µM | TGI [42]: > 100 µM | TGI [43]: > 100 µM | TGI [44]: > 100 µM | TGI [46]: > 100 µM | TGI [47]: > 100 µM | TGI [49]: > 100 µM | TGI [50]: > 100 µM | TGI [51]: > 100 µM | TGI [53]: > 100 µM | TGI [59]: > 100 µM | TGI [54]: > 100 µM | TGI [55]: > 100 µM | TGI [56]: > 100 µM | TGI [57]: > 100 µM | TGI [58]: > 100 µM

CCCCNc1nc(N)nc(Nc2ccc(Br)cc2)c1N=O
TGI [1]: > 100 µM | TGI [3]: > 100 µM | TGI [4]: > 100 µM | TGI [5]: > 100 µM | TGI [7]: > 100 µM | TGI [8]: > 100 µM | TGI [9]: > 100 µM | TGI [10]: > 100 µM | TGI [11]: > 100 µM | TGI [12]: > 100 µM | TGI [13]: > 100 µM | TGI [14]: > 100 µM | TGI [15]: > 100 µM | TGI [17]: 82.8 µM | TGI [18]: > 100 µM | TGI [19]: > 100 µM | TGI [20]: > 100 µM | TGI [21]: > 100 µM | TGI [22]: > 100 µM | TGI [23]: > 100 µM | TGI [24]: > 100 µM | TGI [25]: > 100 µM | TGI [26]: > 100 µM | TGI [27]: > 100 µM | TGI [28]: > 100 µM | TGI [29]: > 100 µM | TGI [30]: > 100 µM | TGI [31]: > 100 µM | TGI [32]: > 100 µM | TGI [33]: > 100 µM | TGI [34]: > 100 µM | TGI [35]: > 100 µM | TGI [37]: > 100 µM | TGI [38]: > 100 µM | TGI [39]: > 100 µM | TGI [40]: > 100 µM | TGI [41]: > 100 µM | TGI [42]: > 100 µM | TGI [44]: > 100 µM | TGI [45]: > 100 µM | TGI [46]: > 100 µM | TGI [47]: > 100 µM | TGI [49]: > 100 µM | TGI [50]: > 100 µM | TGI [51]: > 100 µM | TGI [52]: > 100 µM | TGI [53]: > 100 µM | TGI [54]: > 100 µM | TGI [55]: > 100 µM | TGI [56]: > 100 µM | TGI [57]: > 100 µM | TGI [58]: > 100 µM
